Measurements taken from ChEMBL document CHEMBL1201862, “PubChem BioAssay data set” (2004).
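Results reflect a 48-hour exposure of cells in 96-well plates to compound at five concentrations. GI50 marks 50% less growth.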 Calls of active or inactive are those of the source. No stated cut-off is given here; in the data, active = GI50 up to about 1.1 µM and inactive = higher.

Key:
Experiment in all cases: NCI anticancer screen, dose series, 48 h
RXF 393 = tested on: RXF 393
Malme-3M = tested on: Malme-3M
HCT-116 = tested on: HCT-116
SK-MEL-2 = tested on: SK-MEL-2
KM12 = tested on: KM12
SW-620 = tested on: SW-620
CCRF-CEM = tested on: CCRF-CEM
COLO 205 = tested on: COLO 205
HCC 2998 = tested on: HCC 2998
UO-31 = tested on: UO-31
SNB-75 = tested on: SNB-75
RPMI-8226 = tested on: RPMI-8226
OVCAR-8 = tested on: OVCAR-8
HOP-92 = tested on: HOP-92
OVCAR-5 = tested on: OVCAR-5
ACHN = tested on: ACHN
SNB-78 = tested on: SNB-78
UACC-257 = tested on: UACC-257
BT-549 = tested on: BT-549
PC-3 = tested on: PC-3

Row | Structure (SMILES) | GI50 (RXF 393) | GI50 (Malme-3M) | GI50 (HCT-116) | GI50 (SK-MEL-2) | GI50 (KM12) | GI50 (SW-620) | GI50 (CCRF-CEM) | GI50 (COLO 205) | GI50 (HCC 2998) | GI50 (UO-31) | GI50 (SNB-75) | GI50 (RPMI-8226) | GI50 (OVCAR-8) | GI50 (HOP-92) | GI50 (OVCAR-5) | GI50 (ACHN) | GI50 (SNB-78) | GI50 (UACC-257) | GI50 (BT-549) | GI50 (PC-3)
1 | COc1ccc(/C(Cl)=C(\c2ccc(OCCN(C)C)cc2)c2ccc(OC(=O)C(C)(C)C)cc2)cc1 | 8.28 µM (inactive) | 13.6 µM (inactive) | 12.1 µM (inactive) | 15.9 µM (inactive) | 13.5 µM (inactive) | 13.2 µM (inactive) | 11 µM (inactive) | 13.9 µM (inactive) | 15.7 µM (inactive) | 6.95 µM (inactive) | 10.2 µM (inactive) | 14.3 µM (inactive) | 15.8 µM (inactive) | 18.1 µM (inactive) | 15.7 µM (inactive) | 16 µM (inactive) | 16.1 µM (inactive) | – | – | –
2 | CC[C@H]1CNC(=O)CC1CC(=O)OC (stereo not given in full) | > 100 µM (inactive) | > 100 µM (inactive) | > 100 µM (inactive) | > 100 µM (inactive) | > 100 µM (inactive) | > 100 µM (inactive) | – | – | > 100 µM (inactive) | > 100 µM (inactive) | > 100 µM (inactive) | – | > 100 µM (inactive) | – | > 100 µM (inactive) | > 100 µM (inactive) | > 100 µM (inactive) | > 100 µM (inactive) | – | –
3 | COC(=O)C12C3C4C1C1C2C3C41I (stereo not given) | > 100 µM (inactive) | > 100 µM (inactive) | – | – | – | > 100 µM (inactive) | > 100 µM (inactive) | > 100 µM (inactive) | > 100 µM (inactive) | > 100 µM (inactive) | – | > 100 µM (inactive) | > 100 µM (inactive) | > 100 µM (inactive) | > 100 µM (inactive) | > 100 µM (inactive) | > 100 µM (inactive) | > 100 µM (inactive) | – | –
4 | CCn1c(=O)c2ccccc2n2c(=O)c3cc4ccccc4cc3nc12 | 15.2 µM (inactive) | > 100 µM (inactive) | > 100 µM (inactive) | > 100 µM (inactive) | > 100 µM (inactive) | > 100 µM (inactive) | > 100 µM (inactive) | > 100 µM (inactive) | > 100 µM (inactive) | > 100 µM (inactive) | 27.4 µM (inactive) | > 100 µM (inactive) | 52.2 µM (inactive) | – | > 100 µM (inactive) | > 100 µM (inactive) | 39.8 µM (inactive) | > 100 µM (inactive) | – | –
5 | Cc1ccc(Nc2nc(O)c3[nH]cnc3n2)cc1CO | 16.3 µM (inactive) | 16.5 µM (inactive) | 12.1 µM (inactive) | 16.6 µM (inactive) | 8.81 µM (inactive) | 17.5 µM (inactive) | 16.1 µM (inactive) | 14.6 µM (inactive) | 15.5 µM (inactive) | 16 µM (inactive) | 14.7 µM (inactive) | 10.7 µM (inactive) | 16.6 µM (inactive) | 8.79 µM (inactive) | 18.9 µM (inactive) | 16 µM (inactive) | – | 17.3 µM (inactive) | 14.9 µM (inactive) | 12.8 µM (inactive)
6 | CN(C)/C=N\c1ccn(CCO)c(=O)n1 | > 100 µM (inactive) | > 100 µM (inactive) | > 100 µM (inactive) | > 100 µM (inactive) | > 100 µM (inactive) | > 100 µM (inactive) | > 100 µM (inactive) | > 100 µM (inactive) | > 100 µM (inactive) | > 100 µM (inactive) | > 100 µM (inactive) | – | > 100 µM (inactive) | – | > 100 µM (inactive) | > 100 µM (inactive) | > 100 µM (inactive) | > 100 µM (inactive) | – | –
7 | ClC1c2ccccc2C2(c3ccccc3)OOC1(c1ccccc1)O2 (stereo not given) | 1.4 µM (inactive) | 2.63 µM (inactive) | – | 1.94 µM (inactive) | 1.77 µM (inactive) | 1.39 µM (inactive) | – | 1.87 µM (inactive) | 2.34 µM (inactive) | 1.69 µM (inactive) | 1.77 µM (inactive) | 0.716 µM (active) | 2.03 µM (inactive) | 0.39 µM (active) | 4.24 µM (inactive) | 1.55 µM (inactive) | 1.45 µM (inactive) | 1.99 µM (inactive) | – | –
8 | O=c1c2ccccc2nc(-c2ccccc2)n1NCC1(O)OCC(O)C(O)C1O (stereo not given) | – | > 100 µM (inactive) | > 100 µM (inactive) | > 100 µM (inactive) | > 100 µM (inactive) | 87.5 µM (inactive) | 33.1 µM (inactive) | > 100 µM (inactive) | > 100 µM (inactive) | > 100 µM (inactive) | 50 µM (inactive) | 52.7 µM (inactive) | > 100 µM (inactive) | > 100 µM (inactive) | > 100 µM (inactive) | 95.7 µM (inactive) | > 100 µM (inactive) | > 100 µM (inactive) | – | –
